# “And” between values parts separate entries of the source, which are not always exact repeats. Identical values can stand only once.
# Experiments:
# KDR = KDR (Homo sapiens, UniProt P35968); experiment: KDR enzyme assay, coupled enzyme assay; assay type: biochemical; settings: 300 μM ATP, 10 μM poly E4Y, 30 nM KDR, 37° C.
# Experimental: Compounds were screened for their ability to inhibit KDR using a standard coupled enzyme assay (Fox et al., Protein Sci., (1998) 7, 2249). Assays were carried out in a mixture of 200 mM HEPES 7.5, 10 mM MgCl2, 25 mM NaCl, 1 mM DTT and 1.5% DMSO. Final substrate concentrations in the assay were 300 μM ATP (Sigma Chemicals) and 10 μM poly E4Y (Sigma). Assays were carried out at 37° C. and 30 nM KDR. Final concentrations of the components of the coupled enzyme system were 2.5 mM phosphoenolpyruvate, 200 μM NADH, 30 μg/ML pyruvate kinase and 10 μg/ml lactate dehydrogenase.
# An assay stock buffer solution was prepared containing all of the reagents listed above, with the exception of ATP and the test compound of interest. 177 μl of the stock solution was placed in a 96 well plate followed by addition of 3 μl of 2 mM DMSO stock containing the test compound (final compound concentration 30 μM). The plate was preincubated for about 10 minutes at 37° C. and the reaction initiated by addition of 20 μl of ATP (final concentration 300 μM). Rates of reaction were obtained using a Molecular Devices plate reader (Sunnyvale, Calif.) over a 5 minute read time at 37° C.
# c-Met = c-Met (Homo sapiens, UniProt P08581); experiment: Ki determination for the inhibition of c-Met, coupled enzyme system; assay type: biochemical; settings: 200 μM ATP, 10 μM polyGluTyr, 80 nM c-Met, 30° C.
# How it was run: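 Coupled pyruvate kinase/lactate dehydrogenase NADH assay with 80 nM c-Met, 200 μM ATP, 10 μM polyGluTyr in pH 7.5 HEPES, 1.5% DMSO at 30° C. Compound (0.006–12.5 μM final, 12-point) preincubated 10 min; ATP started reaction, rates read over 10 min; Ki derived from rate versus inhibitor concentration.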
# Chain of c-Met (P08581 25-1390): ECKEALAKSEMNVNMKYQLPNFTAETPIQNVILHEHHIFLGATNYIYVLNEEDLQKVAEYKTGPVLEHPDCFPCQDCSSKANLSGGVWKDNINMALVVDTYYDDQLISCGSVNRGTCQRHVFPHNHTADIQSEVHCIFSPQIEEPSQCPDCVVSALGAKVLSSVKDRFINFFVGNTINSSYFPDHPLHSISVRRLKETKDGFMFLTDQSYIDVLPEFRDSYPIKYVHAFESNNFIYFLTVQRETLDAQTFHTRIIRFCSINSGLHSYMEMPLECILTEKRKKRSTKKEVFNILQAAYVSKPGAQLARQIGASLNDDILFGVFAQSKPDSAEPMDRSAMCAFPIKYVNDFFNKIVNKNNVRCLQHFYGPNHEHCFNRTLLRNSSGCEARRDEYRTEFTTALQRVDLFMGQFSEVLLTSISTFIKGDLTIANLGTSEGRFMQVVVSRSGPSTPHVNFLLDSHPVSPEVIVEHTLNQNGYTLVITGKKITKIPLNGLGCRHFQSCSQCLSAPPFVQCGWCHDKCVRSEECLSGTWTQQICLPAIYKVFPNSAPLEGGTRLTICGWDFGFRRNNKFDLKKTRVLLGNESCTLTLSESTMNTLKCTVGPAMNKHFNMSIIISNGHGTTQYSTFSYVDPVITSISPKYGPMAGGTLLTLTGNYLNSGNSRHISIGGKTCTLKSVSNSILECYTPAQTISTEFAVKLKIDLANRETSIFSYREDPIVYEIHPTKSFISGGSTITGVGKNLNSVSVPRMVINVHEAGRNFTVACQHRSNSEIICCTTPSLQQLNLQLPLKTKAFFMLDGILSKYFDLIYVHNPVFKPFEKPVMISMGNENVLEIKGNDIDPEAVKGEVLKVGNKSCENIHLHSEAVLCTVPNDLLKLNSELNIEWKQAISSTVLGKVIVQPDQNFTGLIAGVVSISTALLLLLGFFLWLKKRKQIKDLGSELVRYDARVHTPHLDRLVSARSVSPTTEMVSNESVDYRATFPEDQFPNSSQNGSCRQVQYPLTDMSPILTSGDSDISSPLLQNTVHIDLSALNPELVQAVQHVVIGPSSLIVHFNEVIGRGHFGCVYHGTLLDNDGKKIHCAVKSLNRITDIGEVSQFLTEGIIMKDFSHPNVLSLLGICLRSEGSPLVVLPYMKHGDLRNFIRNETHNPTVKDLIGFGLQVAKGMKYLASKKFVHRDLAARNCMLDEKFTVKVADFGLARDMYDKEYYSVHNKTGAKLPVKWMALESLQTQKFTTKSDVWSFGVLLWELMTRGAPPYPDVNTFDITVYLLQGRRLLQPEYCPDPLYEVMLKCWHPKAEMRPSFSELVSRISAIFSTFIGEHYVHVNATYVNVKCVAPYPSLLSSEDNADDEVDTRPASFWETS
# Chain of KDR (P35968 20-1356): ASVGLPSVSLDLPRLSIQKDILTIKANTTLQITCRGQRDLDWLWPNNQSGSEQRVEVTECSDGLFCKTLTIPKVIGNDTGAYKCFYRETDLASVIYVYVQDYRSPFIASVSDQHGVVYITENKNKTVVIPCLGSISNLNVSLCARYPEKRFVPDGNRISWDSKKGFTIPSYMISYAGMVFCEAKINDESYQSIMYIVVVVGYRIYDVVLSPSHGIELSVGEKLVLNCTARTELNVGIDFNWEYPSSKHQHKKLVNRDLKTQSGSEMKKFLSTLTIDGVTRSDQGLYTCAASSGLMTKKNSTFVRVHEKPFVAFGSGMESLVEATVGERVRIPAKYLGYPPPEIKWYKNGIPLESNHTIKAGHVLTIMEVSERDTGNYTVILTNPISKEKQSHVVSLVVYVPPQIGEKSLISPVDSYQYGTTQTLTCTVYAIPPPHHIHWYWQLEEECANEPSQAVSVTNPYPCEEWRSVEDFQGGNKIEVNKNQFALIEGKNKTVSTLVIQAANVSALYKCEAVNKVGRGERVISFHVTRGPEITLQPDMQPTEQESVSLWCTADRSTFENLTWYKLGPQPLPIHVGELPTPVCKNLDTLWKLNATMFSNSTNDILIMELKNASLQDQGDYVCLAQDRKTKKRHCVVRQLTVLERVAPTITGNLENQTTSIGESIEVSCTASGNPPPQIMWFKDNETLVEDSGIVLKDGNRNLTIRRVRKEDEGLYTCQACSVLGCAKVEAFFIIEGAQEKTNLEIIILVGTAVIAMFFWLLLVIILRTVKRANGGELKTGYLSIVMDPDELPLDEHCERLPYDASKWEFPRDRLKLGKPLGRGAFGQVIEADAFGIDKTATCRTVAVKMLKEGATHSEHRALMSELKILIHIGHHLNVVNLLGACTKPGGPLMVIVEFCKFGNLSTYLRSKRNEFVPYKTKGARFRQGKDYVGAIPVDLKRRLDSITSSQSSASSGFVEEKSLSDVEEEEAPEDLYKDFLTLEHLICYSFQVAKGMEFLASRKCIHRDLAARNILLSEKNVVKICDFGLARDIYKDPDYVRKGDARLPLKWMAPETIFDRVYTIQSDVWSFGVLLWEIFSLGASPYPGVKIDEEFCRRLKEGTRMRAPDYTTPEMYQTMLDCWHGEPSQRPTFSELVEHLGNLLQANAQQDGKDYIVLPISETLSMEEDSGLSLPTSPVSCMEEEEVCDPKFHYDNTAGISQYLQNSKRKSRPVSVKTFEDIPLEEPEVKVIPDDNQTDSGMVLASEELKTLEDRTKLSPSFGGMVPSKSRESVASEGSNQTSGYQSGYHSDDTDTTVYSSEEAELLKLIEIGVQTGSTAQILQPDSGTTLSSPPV
SMILES,Ki (KDR),Ki (c-Met)
"Fc1c(Cl)cccc1-c1cnoc1-c1c[nH]c2ncccc12 [Compound 42, 3-[4-(3-Chloro-2-fluoro-phenyl)-isoxazol-5-yl]-1H-pyrrolo[2,3-b]pyridine]",0.2 to 1 µM,< 0.2 µM
"CN(C)c1ccnc(-c2cnc3[nH]cc(-c4oncc4-c4cccc(F)c4F)c3c2)c1 [Compound 80, (2-{3-[4-(2,3-Difluoro-phenyl)-isoxazol-5-yl]-1H-pyrrolo[2,3-b]pyridin-5-yl}-pyridin-4-yl)-dimethyl-amine]",< 0.2 µM,1 to 12.5 µM
"CS(=O)(=O)n1ccc2cc(-c3cnc4[nH]cc(-c5oncc5-c5cccc(F)c5F)c4c3)cnc21 [Compound 97, 3′-[4-(2,3-Difluoro-phenyl)-isoxazol-5-yl]-1-methanesulfonyl-1H, 1′H-[5,5′]bi[pyrrolo[2,3-b]pyridinyl]]",< 0.2 µM,< 0.2 µM
"CC(=O)N1CCC(c2cnc3[nH]cc(-c4oncc4-c4cccc(F)c4F)c3c2)CC1 [Compound 63, 1-(4-{3-[4-(2,3-Difluoro-phenyl)-isoxazol-5-yl]-1H-pyrrolo[2,3-b]pyridin-5-yl}-piperidin-1-yl)-ethanone]",1 to 12.5 µM,< 0.2 µM
"CN1CCN(C(=O)[C@H]2C[C@H]2c2cnc3[nH]cc(-c4oncc4-c4cccc(F)c4F)c3c2)CC1 (relative stereo) [Compound 143, cis-(2-{3-[4-(2,3-Difluoro-phenyl)-isoxazol-5-yl]-1H-pyrrolo[2,3-b]pyridin-5-yl}-cyclopropyl)-(4-methyl-piperazin-1-yl)-methanone]",,0.2 to 1 µM and 1 to 12.5 µM
"Fc1cccc(Cc2cnoc2-c2c[nH]c3ncccc23)c1F [Compound 36, 3-[4-(2,3-Difluoro-benzyl)-isoxazol-5-yl]-1H-pyrrolo[2,3-b]pyridine]",1 to 12.5 µM,1 to 12.5 µM
"Fc1cccc(-c2cnoc2-c2c[nH]c3ncc(-c4ncccn4)cc23)c1F [Compound 75, 3-[4-(2,3-Difluoro-phenyl)-isoxazol-5-yl]-5-pyrimidin-2-yl-1H-pyrrolo[2,3-b]pyridine]",0.2 to 1 µM,< 0.2 µM
"CN(C)c1ccnc2[nH]cc(-c3oncc3-c3cccc(F)c3F)c12 [Compound 56, {3-[4-(2,3-Difluoro-phenyl)-isoxazol-5-yl]-1H-pyrrolo[2,3-b]pyridin-4-yl}-dimethyl-amine]",0.2 to 1 µM,1 to 12.5 µM
"O=c1[nH]ccc2c(-c3oncc3-c3cccc(F)c3F)c[nH]c12 [Compound 145, 3-[4-(2,3-Difluoro-phenyl)-isoxazol-5-yl]-1,6-dihydro-pyrrolo[2,3-c]pyridin-7-one]",,1 to 12.5 µM
"Fc1cccc(-c2cnoc2-c2c[nH]c3ncc(-c4ccccc4)cc23)c1F [Compound 58, 3-[4-(2,3-Difluoro-phenyl)-isoxazol-5-yl]-5-phenyl-1H-pyrrolo[2,3-b]pyridine]",< 0.2 µM,< 0.2 µM
"C=Cc1cnc2[nH]cc(-c3oncc3-c3cccc(F)c3F)c2c1 [Compound 66, 3-[4-(2,3-Difluoro-phenyl)-isoxazol-5-yl]-5-vinyl-1H-pyrrolo[2,3-b]pyridine]",< 0.2 µM,< 0.2 µM
"N#CCC(=O)N1CCC(c2cnc3[nH]cc(-c4oncc4-c4cccc(F)c4F)c3c2)CC1 [Compound 64, 3-(4-{3-[4-(2,3-Difluoro-phenyl)-isoxazol-5-yl]-1H-pyrrolo[2,3-b]pyridin-5-yl}-piperidin-1-yl)-3-oxo-propionitrile]",1 to 12.5 µM,< 0.2 µM
"Cc1noc(-c2c[nH]c3ncccc23)c1-c1cccc(F)c1F [Compound 134, 3-[4-(2,3-Difluoro-phenyl)-3-methyl-isoxazol-5-yl]-1H-pyrrolo[2,3-b]pyridine]",1 to 12.5 µM,0.2 to 1 µM

# Results, then the molecule that gave them:
Ki (KDR),Ki (c-Met),SMILES
1 to 12.5 µM,1 to 12.5 µM,"c1cnc2[nH]cc(-c3oncc3C3CCCCC3)c2c1 [Compound 47, 3-(4-Cyclohexyl-isoxazol-5-yl)-1H-pyrrolo[2,3-b]pyridine]"
0.2 to 1 µM,< 0.2 µM,"Fc1cccc(-c2cnoc2-c2c[nH]c3ncc(Br)cc23)c1F [Compound 37, 5-Bromo-3-[4-(2,3-difluoro-phenyl)-isoxazol-5-yl]-1H-pyrrolo[2,3-b]pyridine]"
< 0.2 µM,< 0.2 µM,"CN(C)C(=O)c1ccc(-c2cnc3[nH]cc(-c4oncc4-c4cccc(F)c4F)c3c2)nc1 [Compound 79, 6-{3-[4-(2,3-Difluoro-phenyl)-isoxazol-5-yl]-1H-pyrrolo [2,3-b]pyridin-5-yl}-N,N-dimethyl-nicotinamide]"
0.2 to 1 µM,< 0.2 µM,"Clc1cccc(-c2cnoc2-c2c[nH]c3ncccc23)c1Cl [Compound 2, 3-[4-(2,3-Dichloro-phenyl)-isoxazol-5-yl]-1H-pyrrolo[2,3-b]pyridine]"
< 0.2 µM,< 0.2 µM,"CS(=O)(=O)Nc1ccc(-c2cnc3[nH]cc(-c4oncc4-c4cccc(F)c4F)c3c2)cc1 [Compound 98, N-(4-{3-[4-(2,3-Difluoro-phenyl)-isoxazol-5-yl]-1H-pyrrolo[2,3-b]pyridin-5-yl}-phenyl)-methane sulfonamide]"
,1 to 12.5 µM,Nc1[nH]c2ncccc2c1-c1oncc1-c1cccc(F)c1F [Compound 152]
1 to 12.5 µM,< 0.2 µM,"CNc1ccc2c(-c3oncc3-c3cccc(F)c3F)c[nH]c2n1 [Compound 102, {3-[4-(2,3-Difluoro-phenyl)-isoxazol-5-yl]-1H-pyrrolo[2,3-b]pyridin-6-yl}-methyl-amine]"
1 to 12.5 µM,< 0.2 µM,"Fc1cccnc1-c1cnc2[nH]cc(-c3oncc3-c3cccc(F)c3F)c2c1 [Compound 74, 3-[4-(2,3-Difluoro-phenyl)-isoxazol-5-yl]-5-(3-fluoro-pyridin-2-yl)-1H-pyrrolo[2,3-b]pyridine]"
< 0.2 µM,< 0.2 µM,"Fc1cccc(-c2cnoc2-c2c[nH]c3ncc(/C=C/n4cncn4)cc23)c1F [Compound 133, 3-[4-(2,3-Difluoro-phenyl)-isoxazol-5-yl]-5-(2-[1,2,4]triazol-1-yl-vinyl)-1H-pyrrolo[2,3-b]pyridine]"
< 0.2 µM,< 0.2 µM,"CN(C)Cc1cc(Cl)nc(-c2cnc3[nH]cc(-c4oncc4-c4cccc(F)c4F)c3c2)c1 [Compound 81, (2-Chloro-6-{3-[4-(2,3-difluoro-phenyl)-isoxazol-5-yl]-1H-pyrrolo[2,3-b]pyridin-5-yl}-pyridin-4-ylmethyl)-dimethyl-amine]"

# From patent publication US7446199B2, “Compositions useful as inhibitors of protein kinases” (Vertex Pharmaceuticals Incorporated, priority 2003, dated 2008)
